Laboratory results as given in patent US11351178B2, “Selective HDAC6 inhibitors” (ITALFARMACO S.P.A., priority 2017, dated 2022).

Legend:
[1] = system: B 697 promyelocytic cell line; test: Cytotoxicity on 697 cell line (CellTiter 96); type: cell-based; details: 72 hours incubation, read-out: 697 TOXICITY
Method: (§1) Cytotoxic activity was evaluated on B 697 […] cell line for all synthesized compounds and on peripheral blood mononuclear cells (PBMCs) for compounds showing a good potency/selectivity profile.
(§2) Cells were seeded in plate (2×10^4 cells per well for 697, 5×10^5 cells per well for PBMCs). The test compounds (concentrations from 1.5 nM to 10000 nM for PBMCs and from 1 nM to 10000 nM for 697) were added after 24 hours and incubated 72 hours. The molecules cytotoxic activity was evaluated using CellTiter 96© Aqueous One Solution Cell Proliferation Assay (Promega), which measures the mitochondria function, following the manufacturer's instructions.

[2] = system: peripheral blood mononuclear cells (PBMCs); test: Cytotoxicity on PBMCs (CellTiter 96); type: cell-based; details: PBMC, 72 h; read-out: PBMC TOXICITY (72 h)
Method: as §1, §2

recombinant human HDAC6 = target: T1, recombinant human HDAC6 (Homo sapiens, UniProt Q9UBN7); test: Enzymatic screening on recombinant human HDAC6; type: biochemical; details: Table 2; read-out: HDAC6 IC50
T1 sequence (Q9UBN7 1-1215): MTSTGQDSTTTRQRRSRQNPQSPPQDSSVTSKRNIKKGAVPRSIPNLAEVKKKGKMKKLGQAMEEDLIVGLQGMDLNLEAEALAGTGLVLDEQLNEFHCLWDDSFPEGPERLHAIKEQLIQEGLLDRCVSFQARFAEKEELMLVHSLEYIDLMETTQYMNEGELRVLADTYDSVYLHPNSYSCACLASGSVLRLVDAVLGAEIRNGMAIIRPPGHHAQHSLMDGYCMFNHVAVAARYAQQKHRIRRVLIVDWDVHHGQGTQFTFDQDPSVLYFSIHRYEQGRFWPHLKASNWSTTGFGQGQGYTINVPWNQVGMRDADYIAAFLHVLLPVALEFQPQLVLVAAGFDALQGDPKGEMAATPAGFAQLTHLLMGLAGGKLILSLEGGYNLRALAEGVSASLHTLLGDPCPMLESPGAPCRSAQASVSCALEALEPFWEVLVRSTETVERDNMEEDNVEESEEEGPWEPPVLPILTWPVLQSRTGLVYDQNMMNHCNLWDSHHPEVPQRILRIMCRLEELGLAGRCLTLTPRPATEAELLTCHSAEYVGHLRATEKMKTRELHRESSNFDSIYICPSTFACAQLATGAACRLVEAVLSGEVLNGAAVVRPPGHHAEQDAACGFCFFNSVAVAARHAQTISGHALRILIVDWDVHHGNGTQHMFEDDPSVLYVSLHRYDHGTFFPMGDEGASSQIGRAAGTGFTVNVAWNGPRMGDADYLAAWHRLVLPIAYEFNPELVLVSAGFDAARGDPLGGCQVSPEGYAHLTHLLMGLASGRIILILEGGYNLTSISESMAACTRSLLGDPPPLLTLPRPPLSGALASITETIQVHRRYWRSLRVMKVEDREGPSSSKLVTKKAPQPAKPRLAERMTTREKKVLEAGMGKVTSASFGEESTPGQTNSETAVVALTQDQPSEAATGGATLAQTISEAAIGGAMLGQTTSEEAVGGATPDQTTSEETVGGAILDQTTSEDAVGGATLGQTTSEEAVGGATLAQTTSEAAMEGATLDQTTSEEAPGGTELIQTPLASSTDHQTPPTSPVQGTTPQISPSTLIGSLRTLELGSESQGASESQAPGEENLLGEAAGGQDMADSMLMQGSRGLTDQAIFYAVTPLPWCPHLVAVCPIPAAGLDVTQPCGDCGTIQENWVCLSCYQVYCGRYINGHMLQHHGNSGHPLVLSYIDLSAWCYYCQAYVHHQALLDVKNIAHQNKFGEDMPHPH
Method in brief: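 Deacetylase activity of recombinant human isoforms is measured with FLUOR DE LYS, FLUOR DE LYS-Green or trifluoroacetyl-L-lysine substrates, supplied at 2× in 25 mM Tris-HCl, pH 8, 130 mM NaCl, 0.05% Tween-20, 10% glycerol. Both the enzyme-compound preincubation, of isoform-specific length, and the substrate reaction run at 30 °C.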

Stability in rat plasma = type: in vitro ADME; details: after 4 hours, 37° C.
Method in brief: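 Compounds incubated at 37° C in rat or human plasma at 50 μM (UV/HPLC) or 1 or 2 μM (LC-MS/MS) for 0–4 h. Reaction stopped with acidified acetonitrile on ice; percent remaining versus initial amount and plasma half-life calculated.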

[3] = Stability to Phase I metabolism in rat S9 liver fraction; type: in vitro ADME; details: after 90 min, 37° C.
Method in brief: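 Compounds were incubated with rat or human liver S9 fraction at 37 °C for up to 90 min. Reactions were quenched on ice with acidified acetonitrile and analysed by HPLC-UV or LC-MS/MS. Percent remaining versus time zero and intrinsic clearance were calculated.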

IC50 (recombinant human HDAC6) [µM]	residual percentage in rat plasma (Stability in rat plasma) [%]	residual percentage in rat S9 fraction [3] [%]	Compound	IC50 [1] [µM]	IC50 [2] [µM]
0.025	73	36	O=C(NO)c1cc(F)c(Sc2nnc(CN3CCCC3)n2Cc2ccccc2)c(F)c1 [comp. 141, 4-[[4-benzyl-5-(pyrrolidin-1-yl-methyl)-1,2,4-triazol-3-yl]sulfanyl]-3,5-difluoro-benzenecarbohydroxamic acid]	> 10	–
0.016	89	76	O=C(NO)c1cc(F)c(Sc2nnc(-c3cccnc3)n2Cc2ccco2)c(F)c1 [comp. 147, 3,5-difluoro-4-[[4-(2-furylmethyl)-5-(3-pyridyl)-1,2,4-triazol-3-yl]sulfanyl]benzenecarbohydroxamic acid]	> 10	–
0.009	87	62	CN1CCN(S(=O)(=O)c2cccc(-c3nnc(Sc4c(F)cc(C(=O)NO)cc4F)n3C)c2)CC1 [comp. 151, 3,5-difluoro-4-[[4-methyl-5-[3-(4-methylpiperazin-1-yl)sulfonylphenyl]-1,2,4-triazol-3-yl]sulfanyl]benzenecarbohydroxamic acid]	0.287	–
0.045	–	–	Cn1c(Cc2cccc3cccnc23)nnc1Sc1c(F)cc(C(=O)NO)cc1F [comp. 164, 3,5-difluoro-4-[[4-methyl-5-(8-quinolylmethyl)-1,2,4-triazol-3-yl]sulfanyl]benzenecarbohydroxamic acid]	1.4	0.661
0.008	–	–	Cn1c(Sc2c(F)cc(C(=O)NO)cc2F)nnc1-c1c(F)cccc1F [comp. 165, 4-[[5-(2,6-difluorophenyl)-4-methyl-1,2,4-triazol-3-yl]sulfanyl]-3,5-difluoro-benzenecarbohydroxamic acid]	55.3	> 10
0.009	–	–	CN1CCN(c2cccc(-c3nnc(Sc4c(F)cc(C(=O)NO)cc4F)n3C)c2)CC1 [comp. 166, 3,5-difluoro-4-[[4-methyl-5-[3-(4-methylpiperazin-1-yl)phenyl]-1,2,4-triazol-3-yl]sulfanyl]benzenecarbohydroxamic acid]	61.4	> 10
0.021	–	–	Cn1c(Sc2c(F)cc(C(=O)NO)cc2F)nnc1C1(c2ccccn2)CC1 [comp. 177, 3,5-difluoro-4-[[4-methyl-5-[1-(2-pyridyl)cyclopropyl]-1,2,4-triazol-3-yl]sulfanyl]benzenecarbohydroxamic acid]	50.3	> 10
0.023	–	–	Cn1c(Sc2c(F)cc(C(=O)NO)cc2F)nnc1C1(c2cccnc2)CC1 [comp. 178, 3,5-difluoro-4-[[4-methyl-5-[1-(3-pyridyl)cyclopropyl]-1,2,4-triazol-3-yl]sulfanyl]benzenecarbohydroxamic acid]	50.3	> 10

The next lines start with the molecule.

Compound	IC50 (recombinant human HDAC6) [µM]	residual percentage in rat plasma (Stability in rat plasma) [%]	residual percentage in rat S9 fraction [3] [%]	IC50 [1] [µM]	IC50 [2] [µM]
COc1cccc(-c2nnc(Sc3ccc(C(=O)NO)cc3)n2C)c1 [comp. 78, 4-[[5-(3-methoxyphenyl)-4-methyl-1,2,4-triazol-3-yl]sulfanyl]benzenecarbohydroxamic acid]	0.02	–	–	22.2	6
Cn1c(Sc2ccc(C(=O)NO)cc2)nnc1-c1ccc2c(c1)OCO2 [comp. 84, 4-[[5-(1,3-benzodioxol-5-yl)-4-methyl-1,2,4-triazol-3-yl]sulfanyl]benzenecarbohydroxamic acid]	0.021	–	–	5.2	4.5
O=C(NO)c1cc(F)c(Cn2nnnc2-c2ccc(C(F)(F)F)cn2)c(F)c1 [comp. 129, 3,5-difluoro-4-[[5-[5-(trifluoromethyl)-2-pyridyl]tetrazol-1-yl]methyl]benzenecarbohydroxamic acid]	0.013	93	45	13.2	–
O=C(NO)c1cc(F)c(Cn2nnc(Cc3ccccn3)n2)c(F)c1.O=C(O)C(F)(F)F [comp. 134, 3,5-difluoro-4-[[5-(2-pyridylmethyl)tetrazol-2-yl]methyl]benzenecarbohydroxamic acid;2,2,2-trifluoroacetic acid]	0.01	76	95	> 10	–
Cn1c(Sc2c(F)cc(C(=O)NO)cc2F)nnc1C1(c2ccccc2)CCN(Cc2ccccc2)CC1 [comp. 150, 4-[[5-(1-benzyl-4-phenyl-4-piperidyl)-4-methyl-1,2,4-triazol-3-yl]sulfanyl]-3,5-difluoro-benzenecarbohydroxamic acid]	0.024	92	35	1.26	–
Cn1c(Sc2c(F)cc(C(=O)NO)cc2F)nnc1-c1cccc(S(=O)(=O)N2CCN(Cc3ccccc3)CC2)c1 [comp. 152, 4-[[5-[3-(4-benzylpiperazin-1-yl)sulfonylphenyl]-4-methyl-1,2,4-triazol-3-yl]sulfanyl]-3,5-difluoro-benzenecarbohydroxamic acid]	0.022	113	31	1.45	–
COC(=O)c1ccc(Cc2nnn(Cc3c(F)cc(C(=O)NO)cc3F)n2)cc1 [comp. 154, methyl 4-[[2-[[2,6-difluoro-4-(hydroxycarbamoyl)phenyl]methyl]tetrazol-5-yl]methyl]benzoate]	0.032	–	–	22.7	> 10
COC(=O)c1ccc(-c2nnn(Cc3ccc(C(=O)NO)cc3)n2)nc1 [comp. 156, methyl 6-[2-[[4-(hydroxycarbamoyl)phenyl]methyl]tetrazol-5-yl]pyridine-3-carboxylate]	0.061	–	–	1.57	> 10
COC(=O)c1ccc(-c2nnnn2Cc2ccc(C(=O)NO)cc2)nc1 [comp. 157, methyl 6-[1-[[4-(hydroxycarbamoyl)phenyl]methyl]tetrazol-5-yl]pyridine-3-carboxylate]	0.027	–	–	0.913	0.94
Nc1ccc(-c2nnnn2Cc2c(F)cc(C(=O)NO)cc2F)cc1 [comp. 172, 4-[[5-(4-aminophenyl)tetrazol-1-yl]methyl]-3,5-difluoro-benzenecarbohydroxamic acid]	0.008	–	–	61.4	> 10
NCc1ccc(-c2nnn(Cc3ccc(C(=O)NO)cc3)n2)cc1 [comp. 173, 4-[[5-[4-(aminomethyl)phenyl]tetrazol-2-yl]methyl]benzenecarbohydroxamic acid]	0.002	–	–	1.89	0.948
NCc1ccc(-c2nnn(Cc3c(F)cc(C(=O)NO)cc3F)n2)cc1 [comp. 175, 4-[[5-[4-(aminomethyl)phenyl]tetrazol-2-yl]methyl]-3,5-difluoro-benzenecarbohydroxamic acid]	0.004	–	–	10.1	1.26
NCc1ccc(-c2nnnn2Cc2c(F)cc(C(=O)NO)cc2F)cc1 [comp. 176, 4-[[5-[4-(aminomethyl)phenyl]tetrazol-1-yl]methyl]-3,5-difluoro-benzenecarbohydroxamic acid]	0.055	–	–	50.3	5.3
